Assay results reported in patent publication US12612412B2, “Antiviral heterocyclic compounds” (Enanta Pharmaceuticals, Inc., priority 2021, dated 2026).
pEC50: −log10 of the molar value.

Columns and labels:
[1] = system: genotype A, "Long" strain RSV; assay: RSV-A assay (CPE protection in Hep-2 cells, ATPlite readout); assay type: cell-based, Human respiratory syncytial virus (HRSV); conditions: human respiratory syncytial virus, genotype A “Long” strain RSV, MOI 0.1, CPE protection, read-out: Human RSV-A (“Long”)
Procedure, shortened: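 ATPlite luminescence (cellular ATP) served as the measure of cell health after 5 days of infection. Hep-2 cells at 8,000 per well received duplicate 2-fold compound dilutions plus virus at MOI 0.1, and EC50 was calculated from CPE protection.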

[2] = system: HMPV clinical isolate TN/1501/A1; assay: HMPV antiviral assay Method-B (clinical isolate TN/1501/A1 in LLC-MK2 cells, ATP-Lite readout); assay type: cell-based, Human metapneumovirus (HMPV); conditions: human metapneumovirus, LLC-MK2, 144 h, hMPV WT1501 (clinical isolate TN/1501/A1), 6 days
Procedure, shortened: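 EC50 derived by four-parameter logistic fit of percent cell health, measured by ATP-Lite luminescence and normalised to virus-only and uninfected-cell controls. Compounds run in duplicate from 10 μM top, 3-fold, 10 points. Infection: LLC-MK2 cells, MOI 0.014, 2 μg/mL final TPCK-trypsin, serum-free, 6 days at 37° C.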

Compound	pEC50 [1]	pEC50 [2]
[2H]C([2H])([2H])[C@](O)(CNC(=O)c1cc(OC(F)F)c2ncc(C)cc2c1)c1cc2c(c(-c3ccc(F)cc3)n1)OC[C@]2(C)C(N)=O [Example 647]	> 6.70	< 6.30
COc1cc(C(=O)NC[C@](O)(c2cc3c(c(-c4ccc(F)cc4)n2)OC[C@]3(C)C(N)=O)C(F)(F)F)cc2c(F)n(C3CC3)nc12 [Example 649]	> 6.70	< 6.30
COc1cc(C(=O)NC[C@](O)(c2cc3c(c(-c4ccc5c(c4)OC(F)(F)O5)n2)OC[C@]3(C)C(N)=O)C2CC2)cc2c(F)n(C3CC3)nc12 [Example 650]	> 6.70	> 6.30
COc1cc(C(=O)NC[C@](O)(c2cc3c(c(-c4ccc(F)c(C(F)(F)F)c4)n2)OC[C@]3(C)C(N)=O)C2CC2)cc2cn(C3(F)CC3)nc12 [Example 651]	> 6.70	> 6.30
COc1cc(C(=O)NC[C@](O)(c2cc3c(c(-c4ccc(F)cc4Cl)n2)OC[C@]3(C)C(N)=O)C2CC2)cc2cn(C3(F)CC3)nc12 [Example 652]	> 6.70	> 6.30
COc1cc(C(=O)NC[C@](O)(c2cc3c(c(-c4ccc(F)cc4)n2)OC[C@@H]3C(N)=O)C(F)(F)F)cc2cn(C3CC3)nc12 [Example 653]	> 6.70	< 6.30
COc1cc(C(=O)NC[C@](O)(c2cc3c(c(-c4cc(F)c(F)cc4Cl)n2)OC[C@]3(C)C(N)=O)C(F)(F)F)cc2cn(C3CC3)nc12 [Example 654]	> 6.70	> 6.30
COc1cc(C(=O)NC[C@](O)(c2cc3c(c(-c4ccc(F)c(C(F)(F)F)c4)n2)OC[C@]3(C)C(N)=O)C2CC2)cc2cn(C(F)F)nc12 [Example 655]	> 6.70	> 6.30
COc1cc(C(=O)NC[C@](O)(c2cc3c(c(-c4ccc(F)cc4Cl)n2)OC[C@]3(C)C(N)=O)C2CC2)cc2cn(C(F)F)nc12 [Example 656]	> 6.70	> 6.30
COc1cc(C(=O)NC[C@](O)(c2cc3c(c(-c4cc(F)c(F)cc4Cl)n2)OC[C@]3(C)C(N)=O)C2CC2)cc2cn(C(F)F)nc12 [Example 658]	> 6.70	> 6.30
COc1cc(C(=O)NC[C@](O)(c2cc3c(c(-c4cc(F)c(F)cc4Cl)n2)OC[C@]3(C)C(N)=O)C2CC2)cc2cn(C3(F)CC3)nc12 [Example 659]	> 6.70	> 6.30
COc1cc(C(=O)NC[C@](O)(c2cc3c(c(-c4cc(F)c(F)cc4Cl)n2)OC[C@]3(C)C(N)=O)C2CC2)cc2cc(Br)cnc12 [Example 660]	> 6.70	> 6.30
COc1cc(C(=O)NC[C@](O)(c2cc3c(c(-c4cc(Cl)c(F)cc4F)n2)OC[C@]3(C)C(N)=O)C2CC2)cc2cn(C3CC3)nc12 [Example 661]	> 6.70	> 6.30
COc1cc(C(=O)NC[C@](O)(c2cc3c(c(-c4cc(Cl)c(F)cc4F)n2)OC[C@]3(C)C(N)=O)C2CC2)cc2cn(C(F)F)nc12 [Example 662]	> 6.70	> 6.30
COc1cc(C(=O)NC[C@](O)(c2cc3c(c(-c4cc(Cl)c(F)cc4F)n2)OC[C@]3(C)C(N)=O)C2CC2)cc2cn(C3(F)CC3)nc12 [Example 663]	> 6.70	> 6.30
COc1cc(C(=O)NC[C@](O)(c2cc3c(c(-c4cc(Cl)c(F)cc4F)n2)OC[C@]3(C)C(N)=O)C2CC2)cc2cc(Br)cnc12 [Example 664]	> 6.70	> 6.30
Cc1cnc2c(OC(F)F)cc(C(=O)NC[C@](O)(c3cc4c(c(-c5cc(Cl)c(F)cc5F)n3)OC[C@]4(C)C(N)=O)C3CC3)cc2c1 [Example 665]	> 6.70	> 6.30
COc1cc(C(=O)NC[C@](O)(c2cc3c(c(-c4cc(Cl)c(F)cc4F)n2)OC[C@]3(C)C(N)=O)C2CC2)cc2cc(Cl)c(C)nc12 [Example 666]	> 6.70	> 6.30
C[C@]1(C(N)=O)COc2c1cc([C@@](O)(CNC(=O)c1cc(Cl)c3nn(C4CC4)cc3c1)C1CC1)nc2-c1cc(Cl)c(F)cc1F [Example 668]	> 6.70	> 6.30
COc1cc(C(=O)NC[C@](O)(c2cc3c(c(-c4cc(Cl)c(F)c(Cl)c4)n2)OC[C@]3(C)C(N)=O)C(F)(F)F)cc2cn(C3CC3)nc12 [Example 669]	> 6.70	< 6.30
COc1cc(C(=O)NC[C@](O)(c2cc3c(c(-c4cc(Cl)c(F)c(Cl)c4)n2)OC[C@]3(C)C(N)=O)C(F)(F)F)cc2cn(C(F)F)nc12 [Example 670]	> 6.70	< 6.30
COc1cc(C(=O)NC[C@](O)(c2cc3c(c(-c4cc(Cl)c(F)c(Cl)c4)n2)OC[C@]3(C)C(N)=O)C(F)(F)F)cc2cn(C3(F)CC3)nc12 [Example 671]	> 6.70	< 6.30
COc1cc(C(=O)NC[C@](O)(c2cc3c(c(-c4cc(Cl)c(F)c(Cl)c4)n2)OC[C@]3(C)C(N)=O)C(F)(F)F)cc2cc(Br)cnc12 [Example 672]	> 6.70	< 6.30

Compound	pEC50 [1]	pEC50 [2]
C[C@]1(C(N)=O)COc2c1cc([C@@](O)(CNC(=O)c1cc(Cl)c3nn(C4CC4)cc3c1)C(F)(F)F)nc2-c1cc(Cl)c(F)c(Cl)c1 [Example 673]	> 6.70	< 6.30
COc1cc(C(=O)NC[C@](O)(c2cc3c(c(-c4cc(Cl)c(F)c(Cl)c4)n2)OC[C@]3(C)C(N)=O)C(F)(F)F)cc2cc(Cl)c(C)nc12 [Example 674]	> 6.70	< 6.30
Cc1cnc2c(Cl)cc(C(=O)NC[C@](O)(c3cc4c(c(-c5cc(Cl)c(F)c(Cl)c5)n3)OC[C@]4(C)C(N)=O)C(F)(F)F)cc2c1 [Example 675]	> 6.70	< 6.30
COc1cc(C(=O)NC[C@](O)(c2cc3c(c(-c4ccc(Cl)c(F)c4F)n2)OC[C@]3(C)C(N)=O)C2CC2)cc2cn(C3CC3)nc12 [Example 683]	> 6.70	> 6.30
COc1cc(C(=O)NC[C@](O)(c2cc3c(c(-c4ccc(Cl)c(F)c4F)n2)OC[C@]3(C)C(N)=O)C2CC2)cc2cn(C(F)F)nc12 [Example 684]	> 6.70	> 6.30
COc1cc(C(=O)NC[C@](O)(c2cc3c(c(-c4ccc(Cl)c(F)c4F)n2)OC[C@]3(C)C(N)=O)C2CC2)cc2cn(C3(F)CC3)nc12 [Example 685]	> 6.70	> 6.30
C[C@]1(C(N)=O)COc2c1cc([C@@](O)(CNC(=O)c1cc(Cl)c3nn(C4CC4)cc3c1)C1CC1)nc2-c1ccc(Cl)c(F)c1F [Example 686]	> 6.70	> 6.30
COc1cc(C(=O)NC[C@](O)(c2cc3c(c(-c4ccc(Cl)c(F)c4F)n2)OC[C@]3(C)C(N)=O)C2CC2)cc2cc(Cl)c(C)nc12 [Example 687]	> 6.70	> 6.30
Cc1cnc2c(Cl)cc(C(=O)NC[C@](O)(c3cc4c(c(-c5ccc(Cl)c(F)c5F)n3)OC[C@]4(C)C(N)=O)C3CC3)cc2c1 [Example 688]	> 6.70	> 6.30
COc1cc(C(=O)NC[C@](O)(c2cc3c(c(-c4ccc(F)cc4)n2)OC[C@]3(C)C(N)=O)C(F)(F)F)n2ccnc2c1 [Example 691]	> 6.70	< 6.30
COc1ccc(C(=O)NC[C@](O)(c2cc3c(c(-c4ccc(F)cc4)n2)OC[C@]3(C)C(N)=O)C(F)(F)F)c2cc[nH]c12 [Example 693]	> 6.70	< 6.30
COc1ccc(C(=O)NC[C@](O)(c2cc3c(c(-c4ccc(F)cc4)n2)OC[C@]3(C)C(N)=O)C(F)(F)F)n2cc(C)nc12 [Example 694]	> 6.70	< 6.30
COc1ccc(C(=O)NC[C@](O)(c2cc3c(c(-c4ccc(F)cc4)n2)OC[C@]3(C)C(N)=O)C(F)(F)F)n2cc(C3CC3)nc12 [Example 695]	> 6.70	< 6.30
COc1ccc(C(=O)NC[C@](O)(c2cc3c(c(-c4ccc(F)cc4)n2)OC[C@]3(C)C(N)=O)C(F)(F)F)c2[nH]ccc12 [Example 696]	> 6.70	< 6.30
COc1cc(C(=O)NC[C@](O)(c2cc3c(c(-c4ccc5c(c4)OC(F)(F)O5)n2)OC[C@]3(C)C(N)=O)C(F)(F)F)cc2cc(C3CC3)nn12 [Example 697]	> 6.70	> 6.30
C[C@]1(C(N)=O)COc2c1cc([C@@](O)(CNC(=O)c1cc(F)c3nc(N)sc3c1)C(F)(F)F)nc2-c1ccc2c(c1)OC(F)(F)O2 [Example 698]	> 6.70	< 6.30
COc1ccc(C(=O)NC[C@](O)(c2cc3c(c(-c4ccc(F)cc4)n2)OC[C@]3(C)C(N)=O)C(F)(F)F)n2ccnc12 [Example 699]	> 6.70	< 6.30
COc1ccc(C(=O)NC[C@](O)(c2cc3c(c(-c4ccc5c(c4)OC(F)(F)O5)n2)OC[C@]3(C)C(N)=O)C(F)(F)F)n2ccnc12 [Example 700]	> 6.70	< 6.30
C[C@]1(C(N)=O)COc2c1cc([C@@](O)(CNC(=O)c1ccc(OC3CC3)c3nccn13)C(F)(F)F)nc2-c1ccc(F)cc1 [Example 702]	> 6.70	< 6.30
COc1cc(C(=O)NC[C@](O)(c2cc3c(c(-c4ccc(F)c(Cl)c4)n2)OC[C@]3(C)C(N)=O)C2CC2)cc2cc(C3CC3)nn12 [Example 703]	> 6.70	> 6.30
C[C@]1(C(N)=O)COc2c1cc([C@@](O)(CNC(=O)c1cc(F)c3nc(N)sc3c1)C1CC1)nc2-c1ccc(F)c(Cl)c1 [Example 704]	> 6.70	> 6.30
COc1cc(C(=O)NC[C@](O)(c2cc3c(c(-c4ccc(F)cc4)n2)OC[C@]3(C)C(N)=O)C2(F)CC2)cc2cn(C3CC3)nc12 [Example 705]	> 6.70	> 6.30
COc1cc(C(=O)NC[C@](O)(c2cc3c(c(-c4ccc(F)cc4)n2)OC[C@]3(C)C(N)=O)C2(F)CC2)cc2cc(C3CC3)nn12 [Example 706]	> 6.70	> 6.30
